Results on 85 compounds are retold here after PubChem BioAssay AID463199 (Broad Institute, 2010).

Molecules are shown by their SMILES. Active and inactive are the calls of the source.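 Rule for the calls: active = AC50, the dose giving half-maximal effect, exceeds a fixed cutoff for a compound that rescues yeast growth under heat; inactive = the rest, inconclusive results apart.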

The experiment deals with S. cerevisiae Burl-1 ts mutant growth, BacTiter-Glo, 38.5C 24 h. As to the kind of experiment: growth induction of Burl-1 ts yeast mutant, dose response, counter-screen for SUMOylation pathway inhibitor project, whole organism, S. cerevisiae, luminescence (AID 463199).

In the case of `O=c1nc2ccc(Cl)cn2c2ccc(S(=O)(=O)N3CCOCC3)cc12`, the AC50 is > 42 µM (inactive).

On to `COc1cccc(NC(=S)NC(=O)c2cncc(Br)c2)c1`, for which the AC50 was > 42 µM (inactive).

For `CCN(CC)S(=O)(=O)c1ccc(C(=O)NCCc2cc3c(OC)ccc(OC)c3[nH]c2=O)cc1`, the AC50 was > 42 µM (inactive). For `COC(=O)c1cc2occc2n1Cc1nc(-c2ccccc2C)oc1C` the value was > 42 µM (inactive); for `CCN(CC)C(=O)CSc1nnc(CNc2ccc(F)cc2)n1Cc1ccco1`, > 42 µM (inactive). The value for `Cc1cc(C)c2cc(C)c3nnc(SCC(=O)NCc4ccc5c(c4)OCO5)n3c2c1` was > 42 µM (inactive); that for `Cc1nc2ccccc2c(=O)n1CC(=O)N1CCOCC1` was > 42 µM (inactive). The value for `CN(NC(=O)c1ccccc1F)c1nc(C(F)(F)F)nc2ccccc12` was > 42 µM (inactive). For the compound `CCOc1c(P(=S)(N(C)C)N(C)C)c(C)nn1-c1ccccc1`, the AC50 is > 42 µM (inactive). The value for `CCc1ccccc1NC(=S)NNC(=O)c1ccccc1Cl` was > 42 µM (inactive). The value for `C=CCSC1=C(C#N)C(c2ccc(C(C)C)cc2)CC(=O)N1` (stereo not given) was > 42 µM (inactive). As for `Cc1cc(C(=O)OCC(=O)Nc2cccc(S(N)(=O)=O)c2)c2ccccc2n1`, the AC50 was > 42 µM (inactive). With `O=C(Cc1ccc(Cl)cc1)NC(=S)Nc1ccccc1N1CCOCC1`, the AC50 was > 42 µM (inactive). In the case of `CCN(CC)CCNc1ncnc2c1[nH]c1ccc(OC)cc12`, the AC50 is > 42 µM (inactive).

For the compound `Cc1ccc(C(=O)N/C(=C\c2cccs2)C(=O)NCCc2c[nH]c3ccccc23)cc1`, the AC50 is > 42 µM (inactive). Consider `O=C1CCCN1CCC(=O)N1CCCC(N2CCN(c3ccccc3F)CC2)C1` (stereo not given), for which the AC50 is > 42 µM (inactive). Take `CC(NC(=O)CCc1nnc(-c2ccc(-c3ccccc3)cc2)o1)c1nc2ccccc2[nH]1` (stereo not given): the AC50 was > 42 µM (inactive). For `COc1ccc(CN2CCCCCC2)cc1` the value was > 42 µM (inactive). Consider `Cc1ccnc(NC(=O)CC(c2ccccc2)c2ccccc2)n1`, for which the AC50 was > 42 µM (inactive). The value for `Nc1cc(-c2ccc(Cl)cc2)nn1S(=O)(=O)c1ccc(Cl)cc1` was > 42 µM (inactive); that for `CCCOc1ccc([N+](=O)[O-])c(N)c1` was > 42 µM (inactive). For `CCOC(=O)N1CCN(C(=O)c2ccc(CS(=O)(=O)c3c(Cl)cccc3Cl)o2)CC1` the value was > 42 µM (inactive); for `COc1ccc(C(=O)CSc2nnc3ccc(-c4ccccn4)nn23)cc1`, > 42 µM (inactive); for `COc1ccc(C)cc1NC(=O)Cn1c(=O)oc2ccccc21`, > 42 µM (inactive).

With `FC(F)(F)c1nnc(-c2ccccc2)nc1Oc1ccc(Cl)cc1Cl`, the AC50 was > 42 µM (inactive). The value for `CN(Cc1cccnc1)Cc1cn[nH]c1-c1ccc(-c2ccccc2)cc1` was > 42 µM (inactive). For `COC(=O)[C@@]12CCCCN1[C@H](c1ccc(-c3cccc(Cl)c3)c(OC)c1)[C@H]1C(=O)N(C)C(=O)[C@H]12` the value was > 42 µM (inactive); for `O=C(c1ccncc1)N(Cc1ccccc1)Cc1nc2ccccc2c(=O)[nH]1`, > 42 µM (inactive).

With `CC(C)n1c(O)c(N=Nc2ccccn2)c2ccccc21`, the AC50 was > 42 µM (inactive). For `Cc1ccc(-c2nc3c(=O)n(-c4ccccc4)c4c(c(=O)n(C)c(=O)n4C)c3o2)cc1` the value was > 42 µM (inactive); for `CN1C(=O)C(=Cc2cn(CC(=O)N3CCCC3)c3ccccc23)C(=O)N(C)C1=O`, > 42 µM (inactive). The value for `CC(C)(C)NC(=O)CN(C(=O)CCC(=O)Nc1nccs1)c1ccc2c(c1)OCCO2` was > 42 µM (inactive); that for `O=C(COC(=O)c1ccccc1SCC(=O)N1CCCC1)NC1CCCCC1` was > 42 µM (inactive); that for `CCc1ccc(-n2c(Cc3ccccc3)n[nH]c2=S)cc1` was > 42 µM (inactive).

For `O=C(CSc1ncnc2nc[nH]c12)Nc1ccccc1C(F)(F)F`, the AC50 was > 42 µM (inactive). As to `COc1ccc(NC(=O)CN(c2ccc(C(C)C)cc2)S(=O)(=O)c2c(C)noc2C)cc1OC`, the AC50 was > 42 µM (inactive). The value for `O=C(C1CCC(CNc2c(N3CCCCC3)c(=O)c2=O)CC1)N1CCN(C2CCCCC2)CC1` (stereo not given) was > 42 µM (inactive); that for `Cc1ccc(/C=C2\SC(N3CCCC3)=NC2=O)cc1` was > 42 µM (inactive). With `COC(=O)C1=C(C)N(Cc2ccccc2)C(=S)N[C@H]1c1cccc(F)c1`, the AC50 was > 42 µM (inactive). In the case of `O=C1C2CCCN2C(=S)N1C1CCCCC1` (stereo not given), the AC50 was > 42 µM (inactive). For `O=C(COC(=O)[C@@H]1CC(O)CN1S(=O)(=O)c1ccccc1[N+](=O)[O-])Nc1ccc2ccccc2c1` (stereo not given in full) the value was > 42 µM (inactive); for `O=C(COC(=O)C1CC(=O)N(Cc2ccccc2)C1)Nc1ccccc1F` (stereo not given), > 21 µM (inactive); for `COc1ccc(NS(=O)(=O)c2cccc(C(=O)NCCCn3ccnc3)c2)cc1`, > 42 µM (inactive). For the compound `Cc1cc(C(F)F)n2ncc(C(=O)NCCc3ccc(Cl)cc3)c2n1`, the AC50 is > 42 µM (inactive).

Regarding `N/C(=N\N=C\c1ccc(O)cc1)c1nonc1N`, the AC50 was > 42 µM (inactive). With `CCOC(=O)c1c(/N=C/C2C(=O)CCCC2=O)sc2c1CCCC2`, the AC50 is > 42 µM (inactive). Consider `NN1C(=O)NC(c2ccccc2)(c2ccccc2)C1=O`, for which the AC50 was > 42 µM (inactive).

For `CCCC(=O)Oc1c(S(=O)(=O)c2ccc(C)cc2)c(C)nn1C(C)(C)C`, the AC50 was > 42 µM (inactive). Regarding `CC(C)(C)NC(=O)C1Cc2ccccc2CN1S(=O)(=O)c1ccc(F)cc1` (stereo not given), the AC50 is > 42 µM (inactive). With `O=C(CCN1C(=O)S/C(=C/c2ccccc2)C1=O)Nc1ccc(O)c(C(=O)O)c1`, the AC50 is > 42 µM (inactive). For `CNS(=O)(=O)c1cccc(C(=O)OCC(=O)Nc2ccc(OC)cc2[N+](=O)[O-])c1` the value was > 42 µM (inactive). The value for `CN(C)CCNC(=O)c1c(O)c2c([nH]c1=O)CCCC2` was > 42 µM (inactive).

Regarding `CCOC(=O)COc1nc(-c2ccc(C)cc2)cc(-c2ccco2)c1C#N`, the AC50 is > 42 µM (inactive). The value for `O=Cc1ccc(Oc2cccc(C(F)(F)F)c2)nc1` was > 42 µM (inactive).

For the compound `O=C(N/N=C/c1ccccc1)c1[nH]c2ccc(Br)cc2c1-c1ccccc1`, the AC50 is > 42 µM (inactive). For `CC(C)Oc1ccc(CCC(=O)NNC(=O)c2ccccc2C(=O)O)cc1` the value was > 42 µM (inactive); for `Cc1c(C)c2c(c(C)c1O)CCC(C)(C(=O)O)O2` (stereo not given), > 42 µM (inactive).

For the compound `CN1C(=O)C(=Cc2ccc(N3CCCCC3)o2)C(=O)N(C)C1=S`, the AC50 is > 42 µM (inactive). Consider `Cn1c(=O)c2c(ncn2CC(=O)N2CCCCCC2)n(C)c1=O`, for which the AC50 is > 42 µM (inactive). For `COC(=O)C1CN(C(=O)C(C)Oc2ccc(F)cc2)c2ccccc2O1` (stereo not given) the value was > 42 µM (inactive); for `O=C(NCCNc1ccc(Cl)cc1[N+](=O)[O-])c1ccccc1F`, > 42 µM (inactive); for `CNC(=O)c1ccccc1S(=O)c1ccccc1COC(C)=O` (stereo not given), > 42 µM (inactive).

Take `O=C(COc1cccc2cccnc12)N1CCc2ccccc21`: the AC50 was > 42 µM (inactive). The value for `CCN(CC)c1ccc2c(C)c(CN3CCOCC3)c(=O)oc2c1` was > 42 µM (inactive); that for `CCN(C(=O)Cn1nc(C)c([N+](=O)[O-])c1C)c1c(N)n(Cc2ccccc2)c(=O)[nH]c1=O` was > 42 µM (inactive). Regarding `COc1cc(NC(=S)N2CCN(C(=O)C3CCCO3)CC2)c(OC)cc1Cl` (stereo not given), the AC50 was > 42 µM (inactive). As to `O=C(O)c1ccc(/C=N/NC(=O)c2cc(-c3ccc4c5c(cccc35)CC4)n[nH]2)cc1`, the AC50 is > 42 µM (inactive). As for `Cc1noc(C)c1Cc1ccc(O)cc1`, the AC50 is > 42 µM (inactive). On to `COc1ccc(-n2c(SCC(=O)NCC3CCCO3)nc3c(c2=O)SCC3)cc1OC` (stereo not given), for which the AC50 is > 42 µM (inactive). With `N#C/C(=C\c1cn(-c2ccccc2)nc1-c1cccnc1)c1nnc2n1CCCCC2`, the AC50 is > 42 µM (inactive). For `CCOc1ccccc1NC(=O)CSc1nc(N)c(C#N)cc1C#N` the value was > 42 µM (inactive); for `OCC[C@@H]1C[C@H](O)[C@@H](O)[C@]2(CCc3ccccc3CO2)O1`, > 42 µM (inactive). For the compound `COc1ccc(S(=O)(=O)NCC(=O)N(CC(=O)NCc2ccco2)Cc2ccccc2)cc1`, the AC50 was > 42 µM (inactive). In the case of `O=C1c2nccnc2C(=O)N1c1ccc(C(F)(F)F)cc1`, the AC50 was > 42 µM (inactive). For `Cc1cccc(N/N=C/c2c(O)[nH]c(=S)[nH]c2=O)c1`, the AC50 was > 42 µM (inactive). As for `Cc1ccc(S(=O)(=O)Nc2n[nH]nc2C(=O)NC2CCCCC2)cc1`, the AC50 is > 42 µM (inactive). The value for `Cc1ccc(C)c(N2CCN(C(c3ccncc3)c3nnnn3Cc3ccccc3)CC2)c1` (stereo not given) was 32.8 µM; that for `COc1ccc(S(=O)(=O)N2CCOC2CNC(=O)C(=O)NCc2ccncc2)cc1C` (stereo not given) was > 42 µM (inactive). For `Cc1cc(/C=C2\C(=O)NC(=O)N(c3ccccc3F)C2=O)c(C)n1-c1cc(C(=O)O)cc(C(=O)O)c1` the value was > 42 µM (inactive). As for `Cc1n[nH]c(=O)c2c(NC(=O)COC(=O)Cc3ccc(Cl)cc3Cl)oc(C)c12`, the AC50 was > 21 µM (inactive).

Consider `O=CNCCCc1nc2ccccc2n1CCc1ccccc1`, for which the AC50 was > 42 µM (inactive). The value for `O=C(O)CCSc1ccc([N+](=O)[O-])cc1[N+](=O)[O-]` was > 42 µM (inactive); that for `O=C(CN1CCN(Cc2ccc(Cl)cc2)CC1)N/N=C/c1ccncc1` was > 42 µM (inactive); that for `CC(=O)N1N=C(N)SC12CCCC2` was > 42 µM (inactive). The value for `CN(C)S(=O)(=O)c1cccc(NC(=O)COc2nc3ccccc3nc2N2CCOCC2)c1` was > 42 µM (inactive).
